Values quoted from earlier work as cited in patent US8202840B2, “Enhanced ocular neuroprotection and neurostimulation” (Minu L.L.C., priority 2005, dated 2012).

Columns and labels:
[1] = system: Ganglion cells in the retina (RGC); conditions: systemically administered
[2] = target: immunophilin FK 506-binding protein (FKBP) (Homo sapiens, UniProt P62942); conditions: in vitro
[3] = administered systemically

Chain of immunophilin FK 506-binding protein (FKBP) (P62942 whole entry): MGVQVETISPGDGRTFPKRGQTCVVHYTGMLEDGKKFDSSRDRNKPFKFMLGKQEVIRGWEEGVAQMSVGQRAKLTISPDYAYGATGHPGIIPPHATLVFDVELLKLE

In the case of `C=CC[C@@H]1/C=C(\C)C[C@H](C)C[C@H](OC)[C@H]2O[C@@](O)(C(=O)C(=O)N3CCCC[C@H]3C(=O)O[C@H](/C(C)=C/[C@@H]3CC[C@@H](O)[C@H](OC)C3)[C@H](C)[C@@H](O)CC1=O)[C@H](C)C[C@@H]2OC` [tacrolimus, Tacrolimus], the “neuroprotection on RGC” value [1] is given as “conferred neuroprotection on RGC”, the “binding to and inhibition of FKBP activity” value [2] is given as “binds to and inhibits the activity” and the solubility in chloroform (chloroform) is given as “very soluble”. The solubility in ethanol (ethanol) was “freely soluble”, the solubility in methanol (methanol) was “very soluble” and the solubility in water (water) was “practically insoluble”. The “renal and hepatic toxicity” value [3] was “significant renal and hepatic toxicity”.
